{"source": "patent US8629100B2", "about": "“Method of inhibiting clostridium difficile by administration of oritavancin” (The Medicines Company, priority 2007, dated 2014)", "test_system": "S. aureus NCTC 6571", "experiment": "Agar incorporation MIC against S. aureus NCTC 6571", "format": "cell-based", "details": "Staphylococcus aureus, NCTC6571; agar incorporation methodology"}
{"smiles": "CN[C@H](CC(C)C)C(=O)N[C@H]1C(=O)N[C@@H](CC(N)=O)C(=O)N[C@H]2C(=O)N[C@H]3C(=O)N[C@H](C(=O)N[C@H](C(=O)O)c4cc(O)cc(O)c4-c4cc3ccc4O)[C@H](O[C@H]3C[C@](C)(N)[C@@H](O)[C@H](C)O3)c3ccc(c(Cl)c3)Oc3cc2cc(c3O[C@@H]2O[C@H](CO)[C@@H](O)[C@H](O)[C@H]2O[C@H]2C[C@](C)(NCc3ccc(-c4ccc(Cl)cc4)cc3)[C@@H](O)[C@H](C)O2)Oc2ccc(cc2Cl)[C@H]1O", "note": "[oritavancin, N-(4-(4-chlorophenyl)benzyl)A82846B]", "values": [{"measurement": "MIC", "value": "~4", "unit": "µg/mL"}]}
